Consider three compounds from patent publication US20260085094A1, “STAPLED PEPTIDE AND USE THEREOF” (priority 2021, published 2026).

One data set concerns the target T1, GLP-1R (Homo sapiens, UniProt P43220).
T1 construct: host or cells: HEK293
Kind of data set: In vitro GLP-1R agonistic activity test (cAMP assay). It is filed as cell-based. To be noted: GLP-1R HEK293 cell line. Here is the method: (§1) [table] The compounds to be tested were diluted 4-fold at 10 wells, starting from an initial concentration of 30 μM. […] The TopSeal-A film was removed, and readout was performed on EnVision.

Another data set deals with T2, GIPR (Homo sapiens, UniProt P48546).
T2 construct: host or cells: CHO
T2 sequence (P48546 22-466): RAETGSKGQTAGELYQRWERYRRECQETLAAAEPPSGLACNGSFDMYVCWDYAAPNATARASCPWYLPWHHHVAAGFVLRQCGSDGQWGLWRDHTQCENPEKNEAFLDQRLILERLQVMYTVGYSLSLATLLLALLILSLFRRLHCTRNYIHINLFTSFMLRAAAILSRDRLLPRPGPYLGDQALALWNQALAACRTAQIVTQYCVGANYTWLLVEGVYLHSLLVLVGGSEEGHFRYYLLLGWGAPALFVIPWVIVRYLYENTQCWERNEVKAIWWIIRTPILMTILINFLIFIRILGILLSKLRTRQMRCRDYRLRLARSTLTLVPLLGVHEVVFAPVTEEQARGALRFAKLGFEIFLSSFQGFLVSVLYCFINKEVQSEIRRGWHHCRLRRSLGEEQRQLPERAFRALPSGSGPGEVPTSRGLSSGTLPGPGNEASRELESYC
Description: In vitro GIPR agonistic activity test (cAMP assay). To be noted: GIPR CHO cell line, read-out: GIP-1 EC50. The class given is cell-based. How it is done:
as §1

In another data set the target is T3, GCGR (Homo sapiens, UniProt P47871).
T3 construct: host or cells: HEK293
Kind of data set: In vitro GCGR agonistic activity test (cAMP assay). The class given is cell-based. To be noted: GCGR HEK293 cell line, read-out: GCG EC50. How it is done:
as §1

Data set [1] is described as follows: in vivo. The arrangement: species or system SD rats. To be noted: rat, sc, 0.048 mg/kg. Here is the method: (§2) To test the in vivo pharmacokinetics of the polypeptides of the present disclosure in SD rats. The pharmacokinetic characteristics of the polypeptides of the present disclosure after subcutaneous injection in rodents were tested according to SOP. In the experiment, the polypeptide was prepared into a clear solution, which was administered to rats by single subcutaneous injection (SC, 0.048 mpk). The vehicle for injection was citrate buffer (20 mM, pH=7). The whole blood was collected and prepared to obtain the plasma. The drug concentration was analyzed by LC-MS/MS method, and the pharmacokinetic parameters were calculated using Phoenix WinNonlin software.

Data set [2] is described as follows: in vivo. The arrangement: species or system C57BL/6 mice. As to conditions: sc, 0.048 mg/kg. How it is done:
as §2, with “C57BL/6 mice.” for “SD rats.”, “after intravenous injection and” for “after”, “mice” for “rats”, “for subcutaneous” for “for”

Data set [3] can be described thus: in vivo. The arrangement: species or system cynomolgus macaques. As to conditions: cynomolgus monkey, sc, 0.02 mg/kg. How it is done: as §2, with “cynomolgus macaques.” for “SD rats.”, “after intravenous injection and” for “after”, “mammals” for “rodents”, “cynomolgus macaques” for “rats”, “0.02” for “0.048”, “for subcutaneous” for “for”

T1 sequence (P43220 24-463, species assumed): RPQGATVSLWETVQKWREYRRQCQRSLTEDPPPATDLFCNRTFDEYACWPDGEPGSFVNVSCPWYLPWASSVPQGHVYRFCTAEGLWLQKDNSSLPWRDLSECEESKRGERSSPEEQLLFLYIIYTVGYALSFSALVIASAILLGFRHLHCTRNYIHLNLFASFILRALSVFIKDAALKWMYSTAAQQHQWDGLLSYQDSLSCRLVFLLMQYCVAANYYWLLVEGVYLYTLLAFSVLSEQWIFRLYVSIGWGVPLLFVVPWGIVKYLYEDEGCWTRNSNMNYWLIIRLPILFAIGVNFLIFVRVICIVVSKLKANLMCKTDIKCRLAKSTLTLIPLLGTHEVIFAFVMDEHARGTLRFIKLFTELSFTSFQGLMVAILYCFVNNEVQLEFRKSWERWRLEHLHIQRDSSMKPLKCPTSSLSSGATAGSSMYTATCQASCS
T3 sequence (P47871 26-477, species assumed): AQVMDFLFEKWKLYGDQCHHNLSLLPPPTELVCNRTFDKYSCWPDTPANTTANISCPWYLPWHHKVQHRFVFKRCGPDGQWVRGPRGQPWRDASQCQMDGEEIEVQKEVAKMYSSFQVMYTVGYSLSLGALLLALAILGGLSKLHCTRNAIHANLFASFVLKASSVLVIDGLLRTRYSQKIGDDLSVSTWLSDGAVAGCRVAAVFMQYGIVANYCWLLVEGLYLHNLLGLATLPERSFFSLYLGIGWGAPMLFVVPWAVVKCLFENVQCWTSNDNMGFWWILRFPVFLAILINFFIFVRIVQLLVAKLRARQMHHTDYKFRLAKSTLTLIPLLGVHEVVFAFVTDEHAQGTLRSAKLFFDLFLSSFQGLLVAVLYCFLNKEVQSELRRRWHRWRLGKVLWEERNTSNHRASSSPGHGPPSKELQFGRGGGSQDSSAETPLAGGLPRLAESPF

As for `CC[C@H](C)[C@H](NC(=O)[C@H](Cc1ccccc1)NC(=O)[C@H](C)NC(=O)[C@@H]1CCCCNC(=O)CN(C(=O)COCCOCCNC(=O)COCCOCCNC(=O)CC[C@H](NC(=O)CCCCCCCCCCCCCCCCCCC(=O)O)C(=O)O)CC(=O)NCCCC[C@H](NC(=O)[C@H](CCCCN)NC(=O)[C@H](CC(=O)O)NC(=O)[C@H](CC(C)C)NC(=O)[C@](C)(CC(C)C)NC(=O)[C@@H](NC(=O)[C@H](CO)NC(=O)[C@H](Cc2ccc(O)cc2)NC(=O)[C@H](CC(=O)O)NC(=O)[C@H](CO)NC(=O)[C@@H](NC(=O)[C@H](Cc2ccccc2)NC(=O)[C@@H](NC(=O)CNC(=O)[C@H](CCC(N)=O)NC(=O)C(C)(C)NC(=O)[C@@H](N)Cc2ccc(O)cc2)[C@@H](C)O)[C@@H](C)O)[C@@H](C)CC)C(=O)N[C@@H](C)C(=O)N[C@@H](CCC(N)=O)C(=O)N1)C(=O)N[C@@H](CCC(=O)O)C(=O)N[C@@H](Cc1ccc(O)cc1)C(=O)N[C@@H](CC(C)C)C(=O)N[C@@H](CC(C)C)C(=O)N[C@@H](CCC(=O)O)C(=O)NCC(=O)NCC(=O)N1CCC[C@H]1C(=O)N[C@@H](CO)C(=O)N[C@@H](CO)C(=O)NCC(=O)N[C@@H](C)C(=O)N1CCC[C@H]1C(=O)N1CCC[C@H]1C(=O)N1CCC[C@H]1C(=O)N[C@@H](CO)C(N)=O` [WX001], the EC50 on GLP-1R worked out at 0.072 nM; on GIPR, 0.13 nM; at GCGR, 0.55 nM. Moreover, the AUC(0-t) in “in vivo [1]” (SD) turned out to be 0.718 µM·h; in “in vivo [2]” (C57BL/6, mouse) it was 1.83 µM·h; in “in vivo [3]”, 5.29 µM·h. The Cmax was determined as 17 nM in the data set “in vivo [1]” (SD); 58 nM in the data set “in vivo [2]” (C57BL/6, mouse); 49 nM in “in vivo [3]”. Further, the Tmax in the data set “in vivo [1]” (SD) was 24 h; in the data set “in vivo [2]” (C57BL/6, mouse), 12 h; in “in vivo [3]”, 32 h. For the same compound, the half-life in the data set “in vivo [1]” (SD) was 25 h; in the data set “in vivo [2]” (C57BL/6, mouse) it was 16 h; in the data set “in vivo [3]” it was 61 h.

For `CC[C@H](C)[C@H](NC(=O)[C@H](Cc1ccccc1)NC(=O)[C@H](C)NC(=O)C(C)(C)NC(=O)[C@H](CCC(N)=O)NC(=O)[C@H](C)NC(=O)[C@H](CCCCN)NC(=O)[C@H](CCCCN)NC(=O)[C@H](CC(=O)O)NC(=O)[C@H](CC(C)C)NC(=O)[C@](C)(CC(C)C)NC(=O)[C@@H](NC(=O)[C@H](CO)NC(=O)[C@H](Cc1ccc(O)cc1)NC(=O)[C@H](CC(=O)O)NC(=O)[C@H](CO)NC(=O)[C@@H](NC(=O)[C@H](Cc1ccccc1)NC(=O)[C@@H](NC(=O)CNC(=O)[C@H](CCC(N)=O)NC(=O)C(C)(C)NC(=O)[C@@H](N)Cc1ccc(O)cc1)[C@@H](C)O)[C@@H](C)O)[C@@H](C)CC)C(=O)N[C@@H](CCC(=O)O)C(=O)N[C@H]1CCCCNC(=O)CN(C(=O)COCCOCCNC(=O)COCCOCCNC(=O)CC[C@H](NC(=O)CCCCCCCCCCCCCCCCCCC(=O)O)C(=O)O)CC(=O)NCCCC[C@@H](C(=O)NCC(=O)NCC(=O)N2CCC[C@H]2C(=O)N[C@@H](CO)C(=O)N[C@@H](CO)C(=O)NCC(=O)N[C@@H](C)C(=O)N2CCC[C@H]2C(=O)N2CCC[C@H]2C(=O)N2CCC[C@H]2C(=O)N[C@@H](CO)C(N)=O)NC(=O)[C@H](CC(C)C)NC(=O)[C@H](CC(C)C)NC1=O` [WX005], the EC50 amounted to 0.063 nM on GLP-1R, 0.14 nM on GIPR and 1.4 nM at GCGR. The exposure AUC(0-t) turned out to be 1.21 µM·h in “in vivo [1]” (SD); 2.13 µM·h in “in vivo [2]” (C57BL/6, mouse); 5.81 µM·h in the data set “in vivo [3]”. For the same compound, the Cmax in “in vivo [1]” (SD) came out at 26 nM; in “in vivo [2]” (C57BL/6, mouse), 72 nM; in “in vivo [3]”, 43 nM. Further, the Tmax amounted to 28 h in the data set “in vivo [1]” (SD); 12 h in “in vivo [2]” (C57BL/6, mouse); 48 h in the data set “in vivo [3]”. The half-life in the data set “in vivo [1]” (SD) was 23 h; in “in vivo [2]” (C57BL/6, mouse) it was 15 h; in “in vivo [3]” it was 100 h.

For the compound `CC[C@H](C)[C@H](NC(=O)[C@H](Cc1ccccc1)NC(=O)[C@H](C)NC(=O)C(C)(C)NC(=O)[C@@H]1CCCCNC(=O)CN(C(=O)COCCOCCNC(=O)COCCOCCNC(=O)CC[C@H](NC(=O)CCCCCCCCCCCCCCCCCCC(=O)O)C(=O)O)CC(=O)NCCCC[C@H](NC(=O)[C@H](CC(=O)O)NC(=O)[C@H](CC(C)C)NC(=O)[C@](C)(CC(C)C)NC(=O)[C@@H](NC(=O)[C@H](CO)NC(=O)[C@H](Cc2ccc(O)cc2)NC(=O)[C@H](CC(=O)O)NC(=O)[C@H](CO)NC(=O)[C@@H](NC(=O)[C@H](Cc2ccccc2)NC(=O)[C@@H](NC(=O)CNC(=O)[C@H](CCC(N)=O)NC(=O)C(C)(C)NC(=O)[C@@H](N)Cc2ccc(O)cc2)[C@@H](C)O)[C@@H](C)O)[C@@H](C)CC)C(=O)N[C@@H](CCCCN)C(=O)N[C@@H](C)C(=O)N1)C(=O)N[C@@H](CCC(=O)O)C(=O)N[C@@H](Cc1ccc(O)cc1)C(=O)N[C@@H](CC(C)C)C(=O)N[C@@H](CC(C)C)C(=O)N[C@@H](CCC(=O)O)C(=O)NCC(=O)NCC(=O)N1CCC[C@H]1C(=O)N[C@@H](CO)C(=O)N[C@@H](CO)C(=O)NCC(=O)N[C@@H](C)C(=O)N1CCC[C@H]1C(=O)N1CCC[C@H]1C(=O)N1CCC[C@H]1C(=O)N[C@@H](CO)C(N)=O` [WX002], the Cmax in the data set “in vivo [1]” (SD) was found to be 30 nM; in the data set “in vivo [2]” (C57BL/6, mouse), 69 nM; in “in vivo [3]”, 54 nM. Besides, the figures for the AUC(0-t) in the data set “in vivo [1]”, in the data set “in vivo [2]” (mouse) and in “in vivo [3]” were 1.06 µM·h, 2.01 µM·h and 5.1 µM·h, respectively. Also, the values for the Tmax in the data set “in vivo [1]”, in “in vivo [2]” (mouse) and in the data set “in vivo [3]” were 20 h, 8 h and 24 h, respectively. The results for the half-life in the data set “in vivo [1]”, in “in vivo [2]” (mouse) and in “in vivo [3]” were 14 h, 10 h and 52 h, respectively.
